Measured values from patent US6541619B1 (Daewoong Pharmaceutical Co., Ltd., priority 1997, dated 2003).

Tests used:
CHO-K1 cells = test: Cytotoxicity to CHO-K1 cells that do not express hEGF receptors (MTT); assay type: cell-based; conditions: CHO-K1, serum-free media, 2 days
Procedure: Cells were cultured on 96 well plates at 1×10^4 cells/ml for 1 day, and received serum-free media containing control and samples, and incubated for additional 2 days. Survival rate of the cells was measured with MTT, in an analogous manner as in Example 15(see: Table 4).

yeast t-RNA = test: RNase activity on yeast t-RNA (OD 260 nm); assay type: biochemical; conditions: relative to angiogenin; 37° C., 2 hours
Procedure: 50 μl of sample containing a fusion protein was mixed with 50 μl of yeast t-RNA mixture containing reaction buffer composed of 120 mM HEPES, 120 mM NaCl, 0.004% BSA and incubated at 37° C. for 2 hours. Reaction was interrupted by an equal volume of 6% perchloric acid. Subsequently, the reaction mixture was centrifuged for 10 minutes and used to measure optical density at 260 nm from which the standard curve was made to measure RNase activity. Activities of the samples were compared with that of angiogenin(see: Table 2).

MCF-7 = test: Cytotoxicity to breast cancer cells in vitro (MTT); assay type: cell-based, human; conditions: MCF-7, serum-free media, 2 days
Procedure: In order to evaluate activity of the fusion protein in vitro, breast cancer cell line, MCF-7(ATCC-HTB22), was cultured in DMEM supplemented with 10% FBS. Cells were plated on 96-well plates at 1×10^4 cells/ml and cultured for 1 day. Medium was replaced with serum free-media containing control, sample, and 5-fluorouracil(for comparison) and cultured for 2 days, survival rate was measured with MTT(3-([…]-2-yl)-2,5-diphenyltetrazolium bromide), and IC50 was calculated(see: Table 3).

A431 tumor = test: Anticancer effect in vivo, A431 tumor transplanted in nude mouse
Procedure: To evaluate anticancer activity of the fusion protein in vivo, A431 cultured cells were transferred subcutaneously to the abdominal region of an immunodeficient nude mouse(20-25 g body weight) at 2×10^7 in 0.2 ml. When the proper size of tumor was formed, tumor was removed from the mouse under sterilization condition and cut into pieces of 2-3 mm to be transferred subcutaneously with a troca. When the size of the transplanted tumor of the nude mouse reached […], mice were divided into 5 groups(6 mice in one group) for i.v. injection. 100 μg/kg body weight of the fusion protein and angiogenin were administered by i.v. injection every 3 day for 4 weeks. After final administration, the area of the tumor-surface was measured by vernier calipers.
The tumor cells were excised after 4 weeks and measured for the weight(see: Table 5).

Row | Compound | IC50 (CHO-K1 cells; Cricetulus griseus, 48 h) [nM] | RNase Activity(%) (yeast t-RNA) | IC50 (MCF-7) [nM] | IC50 (CHO-K1 cells) [nM] | Mean tumor-surface B (after 4 weeks) (A431 tumor; 100 μg/kg i.v. every 3 day for 4 weeks, after 4 weeks) [mm^2] | Mean tumor-surface A (on the day of administration) (A431 tumor; 100 μg/kg i.v. every 3 day for 4 weeks, day of administration) [mm^2] | Mean tumor-surface B/A (A431 tumor; ratio of surface after 4 weeks to day of administration) | Mean tumor weight (A431 tumor; tumor excised after 4 weeks, 100 μg/kg i.v. every 3 day) [g]
1 | O=c1[nH]cc(F)c(=O)[nH]1 [5-fluorouracil, reference compound] | 49.5 |  |  |  |  |  |  | 
2 | hEGF-angiogenin: fusion protein of EGF-angiogenin expressed from pTE4083, SEQ ID No:19 |  | 65-90% |  |  |  |  |  | 
3 | Angiogenin: human angiogenin, 14.4 kD protein consisting of 123 amino acids, ribonuclease superfamily, SEQ ID No:2 |  | 100% | > 100 | > 100 | 477.2 ± 6.7 | 79.3 ± 2.1 | 6.0 | 5.0 ± 0.7
